# Target: FXR (Homo sapiens (Human), UniProt Q96RI1)
# Assay: FXR EC50 (FXR agonist potency reported with each Example)
# Format: cell-based
# Chain of FXR (Q96RI1 262-486): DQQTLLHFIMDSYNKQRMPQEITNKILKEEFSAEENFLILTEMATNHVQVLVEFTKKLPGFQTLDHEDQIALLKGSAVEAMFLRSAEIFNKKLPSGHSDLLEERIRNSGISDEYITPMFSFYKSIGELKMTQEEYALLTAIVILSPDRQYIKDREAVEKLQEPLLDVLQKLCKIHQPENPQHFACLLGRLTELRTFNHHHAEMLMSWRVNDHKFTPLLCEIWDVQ
row,Structure (SMILES),EC50
1,"Cn1cc(-c2cccc(N(CC34CCC(c5nc(C6CC6)no5)(CC3)CC4)C(=O)C3CC(F)(F)C3)c2)nc1C1CC1 [Example 131, N-((4-(3-cyclopropyl-1,2,4-oxadiazol-5-yl)bicyclo[2.2.2]octan-1-yl)methyl)-N-(3-(2-cyclopropyl-1-methyl-1H-imidazol-4-yl)phenyl)-3,3-difluorocyclobutane-1-carboxamide]",1440 nM
2,"Cn1c(-c2cccc(N(CC34CCC(c5nc(C6CC6)no5)(CC3)CC4)C(=O)C34CC(F)(C3)C4)c2)nnc1C1CC1 [Example 132, N-((4-(3-cyclopropyl-1,2,4-oxadiazol-5-yl)bicyclo[2.2.2]octan-1-yl)methyl)-N-(3-(5-cyclopropyl-4-methyl-4H-1,2,4-triazol-3-yl)phenyl)-3-fluorobicyclo[1.1.1]pentane-1-carboxamide]",4410 nM
3,"O=C(C1CC(C(F)F)C1)N(CC12CCC(c3nnc(C4CC4)o3)(CC1)CC2)c1cccc(-c2nnc(C3CC3)o2)c1 (stereo not drawn) [Example 134, N-((4-(5-cyclopropyl-1,3,4-oxadiazol-2-yl)bicyclo[2.2.2]octan-1-yl)methyl)-N-(3-(5-cyclopropyl-1,3,4-oxadiazol-2-yl)phenyl)-3-(difluoromethyl)cyclobutane-1-carboxamide]",636 nM
4,"O=C(C1CC(F)(F)C1)N(CC12CCC(c3nnc(C4CC4)o3)(CC1)CC2)c1cccc(-c2nnc(C3CC3)o2)c1 [Example 135, N-((4-(5-cyclopropyl-1,3,4-oxadiazol-2-yl)bicyclo[2.2.2]octan-1-yl)methyl)-N-(3-(5-cyclopropyl-1,3,4-oxadiazol-2-yl)phenyl)-3,3-difluorocyclobutane-1-carboxamide]",1110 nM
5,"O=C(N(CC12CCC(c3nnc(C4CC4)o3)(CC1)CC2)c1cccc(-c2nnc(C3CC3)o2)c1)C12CC(F)(C1)C2 [Example 136, N-((4-(5-cyclopropyl-1,3,4-oxadiazol-2-yl)bicyclo[2.2.2]octan-1-yl)methyl)-N-(3-(5-cyclopropyl-1,3,4-oxadiazol-2-yl)phenyl)-3-fluorobicyclo[1.1.1]pentane-1-carboxamide]",141 nM
6,"O=C(N(CC12CCC(c3nnc(C4CC4)o3)(CC1)CC2)c1cccc(-c2nc(C3CC3)no2)c1)C12CC(F)(C1)C2 [Example 137, N-(3-(3-cyclopropyl-1,2,4-oxadiazol-5-yl)phenyl)-N-((4-(5-cyclopropyl-1,3,4-oxadiazol-2-yl)bicyclo[2.2.2]octan-1-yl)methyl)-3-fluorobicyclo[1.1.1]pentane-1-carboxamide]",43 nM
7,"O=C(C1CC(F)(F)C1)N(CC12CCC(c3nnc(C4CC4)o3)(CC1)CC2)c1cccc(-c2nc(C3CC3)no2)c1 [Example 138, N-(3-(3-cyclopropyl-1,2,4-oxadiazol-5-yl)phenyl)-N-((4-(5-cyclopropyl-1,3,4-oxadiazol-2-yl)bicyclo[2.2.2]octan-1-yl)methyl)-3,3-difluorocyclobutane-1-carboxamide]",158 nM
8,"O=C(C1CC(C(F)F)C1)N(CC12CCC(c3nnc(C4CC4)o3)(CC1)CC2)c1cccc(-c2nc(C3CC3)no2)c1 (stereo not drawn) [Example 139, N-(3-(3-cyclopropyl-1,2,4-oxadiazol-5-yl)phenyl)-N-((4-(5-cyclopropyl-1,3,4-oxadiazol-2-yl)bicyclo[2.2.2]octan-1-yl)methyl)-3-(difluoromethyl)cyclobutane-1-carboxamide]",384 nM
9,"COc1ncc(C23CCC(CN(C(=O)C45CC(F)(C4)C5)c4cccc(-c5nc(C6CC6)no5)c4)(CC2)CO3)cn1 [Example 140, N-(3-(3-Cyclopropyl-1,2,4-oxadiazol-5-yl)phenyl)-3-fluoro-N-((1-(2-methoxypyrimidin-5-yl)-2-oxabicyclo[2.2.2]octan-4-yl)methyl)bicyclo[1.1.1]pentane-1-carboxamide]",582 nM
10,"N#CC1(c2ccc(C34CCC(CN(C(=O)C5CC(C(F)F)C5)c5cccc(-c6nc(C7CC7)no6)c5)(CC3)CO4)cc2)CC1 (stereo not drawn) [Example 141, N-((1-(4-(1-Cyanocyclopropyl)phenyl)-2-oxabicyclo[2.2.2]octan-4-yl)methyl)-N-(3-(3-cyclopropyl-1,2,4-oxadiazol-5-yl)phenyl)-3-(difluoromethyl)cyclobutane-1-carboxamide]",643 nM
11,"N#CC1(c2ccc(C34CCC(CN(C(=O)C5CC(F)(F)C5)c5cccc(-c6nc(C7CC7)no6)c5)(CC3)CO4)cc2)CC1 [Example 142, N-((1-(4-(1-cyanocyclopropyl)phenyl)-2-oxabicyclo[2.2.2]octan-4-yl)methyl)-N-(3-(3-cyclopropyl-1,2,4-oxadiazol-5-yl)phenyl)-3,3-difluorocyclobutuane-1-carboxamide]",583 nM
12,"N#CC1(c2ccc(C34CCC(CN(C(=O)C56CC(F)(C5)C6)c5cccc(-c6nc(C7CC7)no6)c5)(CC3)CO4)cc2)CC1 [Example 143, N-((1-(4-(1-cyanocyclopropyl)phenyl)-2-oxabicyclo[2.2.2]octan-4-yl)methyl)-N-(3-(3-cyclopropyl-1,2,4-oxadiazol-5-yl)phenyl)-3-fluorobicyclo[1.1.1]pentane-1-carboxamide]",89 nM
13,"N#CC1(c2ccc(C34CCC(CN(C(=O)C5CC(C(F)F)C5)c5cccc(-c6nnc(C7CC7)o6)c5)(CC3)CO4)cc2)CC1 (stereo not drawn) [Example 144, N-((1-(4-(1-Cyanocyclopropyl)phenyl)-2-oxabicyclo[2.2.2]octan-4-yl)methyl)-N-(3-(5-cyclopropyl-1,3,4-oxadiazol-2-yl)phenyl)-3-(difluoromethyl)cyclobutane-1-carboxamide]",2160 nM
14,"N#CC1(c2ccc(C34CCC(CN(C(=O)C5CC(F)(F)C5)c5cccc(-c6nc(C7CC7)no6)c5)(CC3)CO4)cc2)CC1 [Example 145, N-((1-(4-(1-cyanocyclopropyl)phenyl)-2-oxabicyclo[2.2.2]octan-4-yl)methyl)-N-(3-(3-cyclopropyl-1,2,4-oxadiazol-5-yl)phenyl)-3,3-difluorocyclobutane-1-carboxamide]",4320 nM
15,"N#CC1(c2ccc(C34CCC(CN(C(=O)C56CC(F)(C5)C6)c5cccc(-c6nc(C7CC7)no6)c5)(CC3)CO4)cc2)CC1 [Example 146, N-((1-(4-(1-cyanocyclopropyl)phenyl)-2-oxabicyclo[2.2.2]octan-4-yl)methyl)-N-(3-(3-cyclopropyl-1,2,4-oxadiazol-5-yl)phenyl)-3-fluorobicyclo[1.1.1]pentane-1-carboxamide]",334 nM
16,"COC1(c2nc(-c3cccc(N(CC45CCC(c6nc(C7CC7)no6)(CC4)CC5)C(=O)C45CC(F)(C4)C5)c3)no2)CC1 [Example 147, N-((4-(3-cyclopropyl-1,2,4-oxadiazol-5-yl)bicyclo[2.2.2]octan-1-yl)methyl)-3-fluoro-N-(3-(5-(1-methoxycyclopropyl)-1,2,4-oxadiazol-3-yl)phenyl)bicyclo[1.1.1]pentane-1-carboxamide]",79 nM
17,"COc1nccc(C23CCC(CN(C(=O)C45CC(F)(C4)C5)c4cccc(-c5nc(C6CC6)no5)c4)(CC2)CC3)n1 [Example 148, N-(3-(3-cyclopropyl-1,2,4-oxadiazol-5-yl)phenyl)-3-fluoro-N-((4-(2-methoxypyrimidin-4-yl)bicyclo[2.2.2]octan-1-yl)methyl)bicyclo[1.1.1]pentane-1-carboxamide]",687 nM
18,"O=C(N(CC12CCC(c3nc(C4CC4)no3)(CC1)CC2)c1cccc(-c2ccn(C3COC3)n2)c1)C12CC(F)(C1)C2 [Example 149, N-((4-(3-cyclopropyl-1,2,4-oxadiazol-5-yl)bicyclo[2.2.2]octan-1-yl)methyl)-3-fluoro-N-(3-(1-(oxetan-3-yl)-1H-pyrazol-3-yl)phenyl)bicyclo[1.1.1]pentane-1-carboxamide]",111 nM
19,"O=C(N(CC12CCC(c3nc(C4CC4)no3)(CC1)CC2)c1cccc(-c2cnn(C3COC3)c2)c1)C12CC(F)(C1)C2 [Example 150, N-((4-(3-cyclopropyl-1,2,4-oxadiazol-5-yl)bicyclo[2.2.2]octan-1-yl)methyl)-3-fluoro-N-(3-(1-(oxetan-3-yl)-1H-pyrazol-4-yl)phenyl)bicyclo[1.1.1]pentane-1-carboxamide]",87 nM
20,"Cc1csc(-c2cccc(N(CC34CCC(c5nc(C6CC6)no5)(CC3)CC4)C(=O)C34CC(F)(C3)C4)c2)n1 [Example 151, N-((4-(3-cyclopropyl-1,2,4-oxadiazol-5-yl)bicyclo[2.2.2]octan-1-yl)methyl)-3-fluoro-N-(3-(4-methylthiazol-2-yl)phenyl)bicyclo[1.1.1]pentane-1-carboxamide]",79 nM
21,"O=C(N(CC12CCC(c3nc(C4CC4)no3)(CC1)CC2)c1cccc(-c2cnn(-c3cccnc3)c2)c1)C12CC(F)(C1)C2 [Example 152, N-((4-(3-cyclopropyl-1,2,4-oxadiazol-5-yl)bicyclo[2.2.2]octan-1-yl)methyl)-3-fluoro-N-(3-(1-(pyridin-3-yl)-1H-pyrazol-4-yl)phenyl)bicyclo[1.1.1]pentane-1-carboxamide]",162 nM
22,"CC(C)(C)c1noc(C23CCC(CN(C(=O)C45CC(F)(C4)C5)c4cccc(-c5nnc(C6CC6)o5)c4)(CC2)CC3)n1 [Example 153, N-((4-(3-(tert-butyl)-1,2,4-oxadiazol-5-yl)bicyclo[2.2.2]octan-1-yl)methyl)-N-(3-(5-cyclopropyl-1,3,4-oxadiazol-2-yl)phenyl)-3-fluorobicyclo[1.1.1]pentane-1-carboxamide]",73 nM
23,"CC1(c2nc(C34CCC(CN(C(=O)C56CC(F)(C5)C6)c5cccc(-c6nnc(C7CC7)o6)c5)(CC3)CC4)no2)CC1 [Example 154, N-(3-(5-cyclopropyl-1,3,4-oxadiazol-2-yl)phenyl)-3-fluoro-N-((4-(5-(1-methylcyclopropyl)-1,2,4-oxadiazol-3-yl)bicyclo[2.2.2]octan-1-yl)methyl) bicyclo[1.1.1]pentane-1-carboxamide]",27 nM
24,"CC1(c2nc(C34CCC(CN(C(=O)C56CC(F)(C5)C6)c5cccc(-c6nnc(C7CC7)o6)c5)(CC3)CC4)no2)COC1 [Example 155, N-(3-(5-cyclopropyl-1,3,4-oxadiazol-2-yl)phenyl)-3-fluoro-N-((4-(5-(3-methyloxetan-3-yl)-1,2,4-oxadiazol-3-yl)bicyclo[2.2.2]octan-1-yl)methyl)bicyclo[1.1.1]pentane-1-carboxamide]",72 nM

# Reference: US11254663B2 (BRISTOL-MYERS SQUIBB COMPANY, priority 2019, dated 2022)
